Laboratory results from patent publication US4322340A, “Pharmacologically active peptides” (Eli Lilly and Company, priority 1980, dated 1982).
Where a name gives a salt, the structure may show the parent alone.

Legend:
mouse [1] = assay: mouse locomotor activity test (physical dependence liability); format: in vivo; conditions: group of ten mice
Experimental: A high correlation has been established between the degree of physical dependence liability of a compound and its ability to elicit mouse locomotor activity; Cf. Goldstein et al., The Journal of Pharmacology and Experimental Therapeutics 169, 175-184 (1969); Rethy et al., The Journal of Pharmacology and Experimental Therapeutics 176, 472-479 (1971); and Brase et al., The Journal of Pharmacology and Experimental Therapeutics 201(2), 368-374 (1977).
Mouse locomotor activity is measured using cylindrical cages of wire mesh 2 inches high and 11 inches in diameter. Six cages are enclosed in a ventilated, sound-attenuated chamber having uniform lighting. A light beam is passed through the center of the cage to a photocell on the opposite side. Two mice are placed in each cage for one hour to become acclimated to the surroundings. Five pairs of mice then are injected subcutaneously with a predetermined dose of the test compound, the remaining pair receiving saline carrier free of test compound. The mice are returned to their respective cages for three hours. The number of counts per each 15 minute period as well as the total number over the three hour period are recorded. Each interruption of the light beam constitutes a count.
The following Table II reflects a mean of the total counts for each group of ten mice tested using a particular compound and dose level.

mouse [2] = assay: mouse hot plate test (analgesic activity); format: in vivo; conditions: subcutaneous injection, tested 15 minutes after administration, hot plate 52° C.
Experimental: In this test, an upright acrylic cylinder comprising, as its base, a hot plate surface which is maintained at 52° C. is used. A mouse is given, by subcutaneous injection, a predetermined amount of test compound dissolved or suspended in a suitable carrier, and, 15 minutes after administration of the test compound, the mouse is placed on the hot plate surface. The latency in seconds until the mouse jumps from the hot plate surface is measured. […] This must occur in a dose range which produces no motor incoordination or incapacitation. The following Table I records ED50 results obtained from this test. By the term "ED50 " is meant that dose which produces analgesia in 50% of the mice tested. Analgesia is defined as a response latency in the presence of test compound that is equal to or greater than the control response latency plus two standard deviations. The percent analgesia data are converted to probits, and the ED50 is calculated by regression analysis of the dose-response data. Each dose response curve must have at least four points, and each point is determined using data from a minimum of ten treated mice and ten control mice.

[3] = Dose 128 mg./kg. subcutaneously

Row | Compound | mean of the total counts, locomotor activity over three hours (mouse [1]; Dose 4 mg./kg. subcutaneously) [counts] | mean of the total counts, locomotor activity over three hours (mouse [1]; Dose 8 mg./kg. subcutaneously) [counts] | mean of the total counts, locomotor activity over three hours (mouse [1]; Dose 16 mg./kg. subcutaneously) [counts] | mean of the total counts, locomotor activity over three hours (mouse [1]; Dose 32 mg./kg. subcutaneously) [counts] | mean of the total counts, locomotor activity over three hours (mouse [1]; Dose 64 mg./kg. subcutaneously) [counts] | mean of the total counts, locomotor activity over three hours (mouse [1]; [3]) [counts] | Analgesic Activity, Hot Plate Test, ED50 (mouse [2]) [µg/kg]
1 | CN[C@@H](Cc1ccc(O)cc1)C(=O)N[C@H](C)C(=O)NCC(=O)N(CC1CC1)[C@@H](Cc1cccc(Br)c1)C(N)=O [Example 1, L-(N-Methyl)tyrosyl-D-alanyl-glycyl-L-(N-cyclopropylmethyl)-m-bromophenylalanine Amide, Acetate Salt] | 171 | 140 | 276 | 320 | 1888 | 2159 | 
2 | CCN(C(=O)CNC(=O)[C@@H](C)NC(=O)[C@H](Cc1ccc(O)cc1)NC)[C@@H](Cc1cccc(Br)c1)C(N)=O [Example 2, L-(N-Methyl)tyrosyl-D-alanyl-glycyl-L-(N-ethyl)-m-bromophenylalanine Amide, Acetate Salt] | 142 | 235 | 358 | 701 | 2523 | 5153 | 3
3 | CCN(C(=O)CNC(=O)[C@@H](C)NC(=O)[C@H](Cc1ccc(O)cc1)NC)[C@@H](Cc1cccc(C)c1)C(N)=O [Example 4, L-(N-Methyl)tyrosyl-D-alanyl-glycyl-L-(N-ethyl)-m-methyl-phenylalanine Amide, Acetate Salt] | 173 | 255 | 537 | 1176 | 3231 | 3852 | 3
4 | CCN(C(=O)CNC(=O)[C@@H](C)NC(=O)[C@@H](N)Cc1ccc(O)cc1)[C@@H](Cc1cccc(Cl)c1)C(N)=O [Example 5, L-Tyrosyl-D-alanyl-glycyl-L-(N-ethyl)-m-chlorophenylalanine Amide, Acetate Salt] | 125 | 613 | 819 | 2388 | 3667 | 2807 | 0.3
5 | CCN(C(=O)CNC(=O)[C@@H](C)NC(=O)[C@H](Cc1ccc(O)cc1)NC)[C@@H](Cc1cccc(Cl)c1)C(N)=O [Example 6, L-(N-Methyl)tyrosyl-D-alanyl-glycyl-L-(N-ethyl)-m-chlorophenylalanine Amide, Acetate Salt] | 148 | 304 | 796 | 1978 | 4477 | 3476 | 1.8
6 | CCN(C(=O)CNC(=O)[C@@H](C)NC(=O)[C@@H](N)Cc1ccc(O)cc1)[C@@H](Cc1cccc(I)c1)C(N)=O [Example 7, L-Tyrosyl-D-alanyl-glycyl-L-(N-ethyl)-m-iodophenylalanine Amide, Acetate Salt] | 178 | 174 | 363 | 852 | 1630 | 2871 | 1.9
7 | CCN(C(=O)CNC(=O)[C@@H](C)NC(=O)[C@@H](N)Cc1ccc(O)cc1)[C@@H](Cc1ccccc1)C(N)=O [H Et H, reference compound] | 704 | 1204 | 2916 | 3528 |  |  | 
8 | CCN(C(=O)CNC(=O)[C@@H](C)NC(=O)[C@H](Cc1ccc(O)cc1)NC)[C@@H](Cc1ccc(F)cc1)C(N)=O [Me Et p-F, reference compound] | 431 | 1425 | 2415 | 2033 |  |  | 
9 | L-Tyrosyl-D-alanyl-glycyl-L-(N-ethyl)-m-bromophenylalanine Amide, Acetate Salt [Example 3] |  | 200 | 512 | 1092 | 2820 |  | 4.9
